Source: US8241607B2, “Use of fructose-based compounds for the diagnosis of cancer” (priority 2005, dated 2012)
Entries after “also recorded” stand apart in the source; their conditions may differ.

System: PANC-1 cells
Test: Inhibition of PANC-1 proliferation by oxythiamine (MTS assay)
Assay type: cell-based
Settings: oxythiamine 0.5 mM, 72 h
Protocol: FIG. 35 depicts inhibition of pancreatic cancer PANC-1 cell proliferation by incubation with the transketolase inhibitor, oxythiamine (0.5-2 mM) for 72 h in accordance with an embodiment of the present invention. Proliferative rates were measured using the MTS proliferation assay.
The inventors believe that fructose-treatment of pancreatic cancer cells led to an increase in TKK-driven nucleic acid synthesis, and thus fructose-treatment would result in an increase in either PANC-1 TKK expression and/or activity in comparison to equivalent glucose concentrations. Western blot analysis on protein lysates derived from fructose-, and glucose-treated PANC-1 cells were performed (5.5 mM fructose, and glucose for 24, and 48 h as per previous protocol) using a specific TKK antibody, and compared TKK expression in the fructose-, and glucose-treated PANC-1 cells. As depicted in FIG. 33, TKK expression at 24 h, and 48 h in protein lysates derived from 5.5 mM glucose-treated PANC-1 cells was increased in comparison to expression in 2 mM glucose-treated cells. […] After gentle mixing the absorbance of the mixture was measured at 10 min intervals for 2 h at 340 nm. Transketolase activity was then derived from the difference in absorbance at 10, and 80 minutes, and expressed as nmol/min/million cells. […] Pancreatic cancer proliferation rates were then measured using the MTS assay (FIG. 35). […]

## Cc1ncc(C[n+]2csc(CCO)c2C)c(=O)[nH]1 [oxythiamine]
5.5 mM fructose
  effect on fructose-mediated increase in pancreatic cancer cell proliferation: virtually abolished; also recorded: almost completely abrogate
  effect on glucose-induced and fructose-induced PANC-1 proliferation: inhibited glucose-induced and fructose-induced PANC-1 proliferation
